{"source": "patent US20250064773A1", "about": "“TARGETING ERO1 ALPHA WITH AURONE DERIVATIVES” (West Virginia University Board of Governors on behalf of …, priority 2021, published 2025)", "key": {"MAO-A": {"molecular_target": "T1, MAO-A (Homo sapiens, UniProt P21397)", "T1 sequence (P21397 1-527)": "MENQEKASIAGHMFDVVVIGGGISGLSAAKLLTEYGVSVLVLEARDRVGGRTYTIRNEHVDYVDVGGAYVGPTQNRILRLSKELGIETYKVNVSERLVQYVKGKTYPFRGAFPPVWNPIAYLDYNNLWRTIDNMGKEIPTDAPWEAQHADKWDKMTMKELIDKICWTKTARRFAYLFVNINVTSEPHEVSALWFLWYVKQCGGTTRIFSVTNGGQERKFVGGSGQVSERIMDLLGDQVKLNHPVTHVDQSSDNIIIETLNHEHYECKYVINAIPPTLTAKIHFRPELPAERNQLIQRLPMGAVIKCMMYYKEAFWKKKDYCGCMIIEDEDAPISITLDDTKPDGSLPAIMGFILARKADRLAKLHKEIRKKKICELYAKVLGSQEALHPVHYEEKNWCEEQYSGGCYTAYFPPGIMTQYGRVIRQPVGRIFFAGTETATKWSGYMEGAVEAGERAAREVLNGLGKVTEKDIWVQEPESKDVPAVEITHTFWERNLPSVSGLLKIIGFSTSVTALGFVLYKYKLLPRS", "details": "cited from earlier work"}, "MAO-B": {"molecular_target": "T2, MAO-B (Homo sapiens, UniProt P27338)", "T2 sequence (P27338 1-520)": "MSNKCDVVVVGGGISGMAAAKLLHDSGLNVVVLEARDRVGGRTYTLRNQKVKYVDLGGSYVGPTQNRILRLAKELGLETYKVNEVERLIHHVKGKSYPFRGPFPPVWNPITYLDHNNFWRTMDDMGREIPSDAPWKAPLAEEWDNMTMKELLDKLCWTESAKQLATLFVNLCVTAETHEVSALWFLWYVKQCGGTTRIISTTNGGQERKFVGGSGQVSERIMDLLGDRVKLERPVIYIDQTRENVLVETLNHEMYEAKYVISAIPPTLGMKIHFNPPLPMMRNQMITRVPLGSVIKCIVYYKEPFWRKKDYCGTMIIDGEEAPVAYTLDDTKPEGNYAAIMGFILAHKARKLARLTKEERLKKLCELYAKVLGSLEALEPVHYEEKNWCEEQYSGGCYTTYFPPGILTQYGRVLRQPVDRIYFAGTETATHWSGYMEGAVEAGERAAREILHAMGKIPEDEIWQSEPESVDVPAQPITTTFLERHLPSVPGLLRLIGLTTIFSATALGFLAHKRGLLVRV", "details": "cited from earlier work"}, "MM1.s": {"system": "MM1.s", "experiment": "MTT viability assay, MM1.s", "format": "cell-based", "details": "Homo sapiens, Multiple Myeloma, read-out: IC50 Avg ± s.d. (n = 3), MM1.s", "description": "Cell Lines: PC-9 cell line used was obtained from Sigma Aldrich and grown in RPMI 1640 medium with 10% fetal bovine serum and 1% penicillin/streptomycin. HCC4006, U266, MM1.s, and Beas-2B cell lines were obtained from ATCC and cultured in either RPMI 1640 or DMEM with 10% fetal bovine serum and 1% penicillin/streptomycin. All cell lines were also checked for mycoplasma every six months and subjected to short tandem repeat (STR) analysis for cell line validation. CRISPR Cas9: CRISPR Guide RNA 2 targeting ERO1α and CRISPR Guide RNA 4 were purchased from Genscript in the pLentiCRISPR V2 plasmid containing puromycin/ampicillin selection marker. Lentivirus was made from HEK 293T cells by co-transfection with GuideRNA of interest, pVSVG, and pPAX2 plasmids. […] Plate was then read on the BioTek Cytation 5 at 530/590 nm. […] Plate was then read at 570 nm. Treated wells were all compared to DMSO control wells to calculate percent growth inhibition and the IC50 was calculated using GraphPad (log(inhibitor) vs growth inhibition). […] Images were then quantified using ImageJ. […] Cells were aliquoted at 1 million cells per PCR tube in PBS and heated in Bio-Rad T100 thermal cycler at indicated temperatures (RT, 46° C., 48° C., 50° C., 52° C., 54° C., 56°, 58° C., and 60° C.) for 3 minutes and aggregation temperature was determined by western blot analysis. […]"}}, "data": [{"smiles": "CN(C)c1ccc(/C=C2\\Oc3cc(O)ccc3C2=O)cc1", "note": "[Compound T151742]", "values": [{"measurement": "inhibition of / activity against MAO-A", "setting": "MAO-A", "value": "showed activity"}, {"measurement": "inhibition of / activity against MAO-B", "setting": "MAO-B", "value": "showed activity"}, {"measurement": "IC50", "setting": "MM1.s", "value": "7.45 ± 1.12", "unit": "µM"}]}]}
